Where two headings read alike, the source gives them in different places.
Legend:
Ustilago maydis (USTIMA) = assay: microbe, parasite or virus in culture; format: cell-based; settings: for inhibition of growth at 25 µg/mL: Mycosarcoma maydis, read-out: USTIMA in vitro Growth Inhibition
[1] = tested on: Rhizoctonia solani (RHIZSO); assay: microbe, parasite or virus in culture; format: cell-based; settings: for inhibition of growth at 25 µg/mL: Rhizoctonia solani, read-out: RHIZSO in vitro Growth Inhibition
[2] = tested on: Leptosphaeria nodorum—LEPTNO; assay: Glume Blotch of Wheat, in vivo whole plant, 24 Hour Protectant; settings: inoculated after 24 hours; for pest or weed control at 100 ppm: Leptosphaeria, 24 h, read-out: LEPTNO in vivo 1 Day Protectant
Erysiphe graminis—ERYSGT = assay: Powdery Mildew of Wheat, in vivo whole plant, 24 Hour Protectant; settings: for ERYSGT in vivo 1 Day Protectant: wheat (cultivar Monon), sprayed at 100 ppm, inoculated after 24 hours, control of fungal infection vs untreated plants; for pest or weed control at 100 ppm: Erysiphe, in Triticum aestivum, 24 h, read-out: ERYSGT in vivo 1 Day Protectant
[3] = tested on: Magnaporthe grisea (Pyricularia oryzae—PYRIOR); assay: microbe, parasite or virus in culture; format: cell-based; settings: for PYRIOR in vitro Growth Inhibition: in vitro fungal growth; for inhibition of growth at 25 µg/mL: Pyricularia oryzae, read-out: PYRIOR in vitro Growth Inhibition
[4] = tested on: Puccinia recondita—PUCCRT; assay: Brown Rust of Wheat, in vivo whole plant, 24 Hour Protectant; settings: inoculated after 24 hours; for pest or weed control at 100 ppm: Puccinia, read-out: PUCCRT in vivo 1 Day Protectant
[5] = tested on: Stagonospora nodorum (Leptosphaeria nodorum—LEPTNO); assay: Inhibition of in vitro fungal growth, LEPTNO; format: cell-based; parameters: inhibition of growth: dose or concentration left out as unconfirmed; settings: for inhibition of growth: Leptosphaeria, in vitro fungal growth
[6] = tested on: Phytophthora infestans (PHYTIN); assay: microbe, parasite or virus in culture; format: cell-based; settings: for PHYTIN in vitro Growth Inhibition: in vitro fungal growth; for inhibition of growth at 25 µg/mL: Phytophthora infestans, read-out: PHYTIN in vitro Growth Inhibition
[7] = tested on: Phytophthora infestans—PHYTIN; assay: whole plant or invertebrate; format: in vivo; settings: for PHYTIN in vivo 1 Day Protectant: tomato (cultivar Rutgers), sprayed at 100 ppm, inoculated after 24 hours, control of fungal infection vs untreated plants; for pest or weed control at 100 ppm: Phytophthora, in Solanum lycopersicum, 24 h, read-out: PHYTIN in vivo 1 Day Protectant
Septoria tritici—SEPTTR = assay: Leaf Blotch of Wheat, in vivo whole plant, 24 Hour Protectant; settings: for pest or weed control at 100 ppm: Zymoseptoria tritici, read-out: SEPTTR in vivo 1 Day Protectant
[8] = tested on: Mycosphaerella graminicola (Septoria tritici—SEPTTR); assay: Inhibition of in vitro fungal growth, SEPTTR; format: cell-based; parameters: inhibition of growth: dose or concentration left out as unconfirmed; settings: for inhibition of growth: Zymoseptoria tritici, in vitro fungal growth
[9] = wheat (cultivar Yuma), sprayed at 100 ppm, control of fungal infection vs untreated plants
[10] = wheat (cultivar Yuma), sprayed at 100 ppm, inoculated after 24 hours, control of fungal infection vs untreated plants
[11] = wheat plants sprayed at 100 ppm, control vs untreated plants
[12] = wheat plants sprayed at 100 ppm, inoculated after 24 hours, control vs untreated plants

Compound: COc1ccnc(C(=O)NC2CC(C)(C)C(OC(=O)c3cccc(Cl)n3)C(C)(C)C2)c1O (stereo not drawn) [Compound 269]
- USTIMA in vitro Growth Inhibition (Ustilago maydis (USTIMA)): − (key: +: at least 80% growth inhibition; −: less than 80% growth inhibition)
- RHIZSO in vitro Growth Inhibition [1]: − (key: +: at least 80% growth inhibition; −: less than 80% growth inhibition)
- melting point: 55 to 56 °C

Compound: O=C(N[C@H]1CC2CC1[C@@H]1CCC[C@H]21)c1ncccc1O (stereo partly drawn) [Compound 206]
- USTIMA in vitro Growth Inhibition (Ustilago maydis (USTIMA)): − (key: +: at least 80% growth inhibition; −: less than 80% growth inhibition)
- LEPTNO in vivo 1 Day Protectant [2, 9]: − (<25% control of fungal infection)
- ERYSGT in vivo 1 Day Protectant (Erysiphe graminis—ERYSGT): − (<25% control of fungal infection)
- PYRIOR in vitro Growth Inhibition [3]: + (at least 80% growth inhibition)
- RHIZSO in vitro Growth Inhibition [1]: + (key: +: at least 80% growth inhibition; −: less than 80% growth inhibition)
- PUCCRT in vivo 1 Day Protectant [4, 9]: − (<25% control of fungal infection)
- LEPTNO in vitro Growth Inhibition [5]: + (key: +: at least 80% growth inhibition; −: less than 80% growth inhibition)
- PHYTIN in vitro Growth Inhibition [6]: − (less than 80% growth inhibition)
- PHYTIN in vivo 1 Day Protectant [7]: − (<25% control of fungal infection)
- SEPTTR in vivo 1 Day Protectant (Septoria tritici—SEPTTR; [10]): − (<25% control of fungal infection)
- SEPTTR in vitro Growth Inhibition [8]: + (key: +: at least 80% growth inhibition; −: less than 80% growth inhibition)

Compound: COc1ccnc(C(=O)NC2CCN(Cc3ccccc3)CC2)c1O.O=C(O)/C=C\C(=O)O [Compound 305]
- USTIMA in vitro Growth Inhibition (Ustilago maydis (USTIMA)): − (key: +: at least 80% growth inhibition; −: less than 80% growth inhibition)
- LEPTNO in vivo 1 Day Protectant [2, 9]: − (<25% control of fungal infection)
- ERYSGT in vivo 1 Day Protectant (Erysiphe graminis—ERYSGT): − (<25% control of fungal infection)
- RHIZSO in vitro Growth Inhibition [1]: − (key: +: at least 80% growth inhibition; −: less than 80% growth inhibition)
- PUCCRT in vivo 1 Day Protectant [4, 9]: − (<25% control of fungal infection)
- LEPTNO in vitro Growth Inhibition [5]: − (key: +: at least 80% growth inhibition; −: less than 80% growth inhibition)
- pest or weed control at 100 ppm [7]: 75 to 100%
- SEPTTR in vivo 1 Day Protectant (Septoria tritici—SEPTTR; [10]): − (<25% control of fungal infection)
- SEPTTR in vitro Growth Inhibition [8]: − (key: +: at least 80% growth inhibition; −: less than 80% growth inhibition)

Compound: CC(C)C(=O)O[C@H]1[C@H](C)OC(=O)[C@@H](NC(=O)c2cccnc2O)COC(=O)[C@@H]1Cc1ccccc1 [Compound 523]
- pest or weed control at 100 ppm [2, 11]: 75 to 100%
- pest or weed control at 100 ppm (Erysiphe graminis—ERYSGT): 25 to 74%
- pest or weed control at 100 ppm [4, 11]: 25 to 74%
- melting point: 188 to 190 °C (dec.)
- pest or weed control at 100 ppm [7]: 25 to 74%
- pest or weed control at 100 ppm (Septoria tritici—SEPTTR; [12]): 25 to 74%

Compound: Br.COc1ccnc(C(=O)NC2C[C@@H](Cc3ccccc3)O[C@@H](C)C2)c1O (stereo partly drawn) [Compound 311]
- USTIMA in vitro Growth Inhibition (Ustilago maydis (USTIMA)): − (key: +: at least 80% growth inhibition; −: less than 80% growth inhibition)
- LEPTNO in vivo 1 Day Protectant [2, 9]: + (25-74% control of fungal infection)
- ERYSGT in vivo 1 Day Protectant (Erysiphe graminis—ERYSGT): − (<25% control of fungal infection)
- RHIZSO in vitro Growth Inhibition [1]: − (key: +: at least 80% growth inhibition; −: less than 80% growth inhibition)
- PUCCRT in vivo 1 Day Protectant [4, 9]: + (25-74% control of fungal infection)
- LEPTNO in vitro Growth Inhibition [5]: − (key: +: at least 80% growth inhibition; −: less than 80% growth inhibition)
- pest or weed control at 100 ppm (Septoria tritici—SEPTTR; 24 h): 75 to 100%
- SEPTTR in vitro Growth Inhibition [8]: − (key: +: at least 80% growth inhibition; −: less than 80% growth inhibition)

Compound: COC(=O)C(Cc1ccc(OCc2ccccc2)cc1)NC(=O)c1nccc(OC)c1O (single isomer, unassigned) [Compound 338]
- inhibition of growth at 25 µg/mL (Ustilago maydis (USTIMA)): > 80%
- pest or weed control at 100 ppm [2, 9]: 75 to 100%
- inhibition of growth at 25 µg/mL [3]: < 80%
- inhibition of growth at 25 µg/mL [1]: < 80%
- pest or weed control at 100 ppm [4, 9]: 75 to 100%
- inhibition of growth [5]: < 80%
- inhibition of growth at 25 µg/mL [6]: < 80%
- inhibition of growth [8]: < 80%

Compound: CC1(C)CC(NC(=O)c2ccnnc2O)CC(C)(C)C1 [Compound 539]
- pest or weed control at 100 ppm [2, 11]: 25 to 74%
- pest or weed control at 100 ppm (Erysiphe graminis—ERYSGT): < 25%
- pest or weed control at 100 ppm [4, 11]: 25 to 74%
- melting point: 263 to 265 °C
- pest or weed control at 100 ppm [7]: < 25%
- pest or weed control at 100 ppm (Septoria tritici—SEPTTR; [12]): 25 to 74%

Compound: C[C@H]1C2CC([C@H]3CCC[C@@H]23)[C@@H]1NC(=O)c1ncccc1O (stereo partly drawn) [Compound 207]
- USTIMA in vitro Growth Inhibition (Ustilago maydis (USTIMA)): − (key: +: at least 80% growth inhibition; −: less than 80% growth inhibition)
- LEPTNO in vivo 1 Day Protectant [2, 9]: − (<25% control of fungal infection)
- ERYSGT in vivo 1 Day Protectant (Erysiphe graminis—ERYSGT): − (<25% control of fungal infection)
- PYRIOR in vitro Growth Inhibition [3]: + (at least 80% growth inhibition)
- RHIZSO in vitro Growth Inhibition [1]: − (key: +: at least 80% growth inhibition; −: less than 80% growth inhibition)
- PUCCRT in vivo 1 Day Protectant [4, 9]: − (<25% control of fungal infection)
- LEPTNO in vitro Growth Inhibition [5]: + (key: +: at least 80% growth inhibition; −: less than 80% growth inhibition)
- PHYTIN in vitro Growth Inhibition [6]: − (less than 80% growth inhibition)
- PHYTIN in vivo 1 Day Protectant [7]: − (<25% control of fungal infection)
- SEPTTR in vivo 1 Day Protectant (Septoria tritici—SEPTTR; [10]): − (<25% control of fungal infection)
- SEPTTR in vitro Growth Inhibition [8]: + (key: +: at least 80% growth inhibition; −: less than 80% growth inhibition)

Compound: N-(3-Hydroxy-4-Methoxy-2-Pyridylcarbonyl)-2-Amino-2-Deoxy-alpha-D-Glucopyranose [Compound 334]
- USTIMA in vitro Growth Inhibition (Ustilago maydis (USTIMA)): − (key: +: at least 80% growth inhibition; −: less than 80% growth inhibition)
- LEPTNO in vivo 1 Day Protectant [2, 9]: + (25-74% control of fungal infection)
- ERYSGT in vivo 1 Day Protectant (Erysiphe graminis—ERYSGT): − (<25% control of fungal infection)
- PYRIOR in vitro Growth Inhibition [3]: − (less than 80% growth inhibition)
- RHIZSO in vitro Growth Inhibition [1]: − (key: +: at least 80% growth inhibition; −: less than 80% growth inhibition)
- PUCCRT in vivo 1 Day Protectant [4, 9]: − (<25% control of fungal infection)
- LEPTNO in vitro Growth Inhibition [5]: − (key: +: at least 80% growth inhibition; −: less than 80% growth inhibition)
- PHYTIN in vitro Growth Inhibition [6]: − (less than 80% growth inhibition)
- PHYTIN in vivo 1 Day Protectant [7]: − (<25% control of fungal infection)
- SEPTTR in vivo 1 Day Protectant (Septoria tritici—SEPTTR; [10]): − (<25% control of fungal infection)
- SEPTTR in vitro Growth Inhibition [8]: − (key: +: at least 80% growth inhibition; −: less than 80% growth inhibition)

Compound: COc1ccnc(C(=O)N[C@@H]2CC3CC2[C@@H](C(=O)OC(C)C)C3)c1O (stereo partly drawn) [Compound 298]
- inhibition of growth at 25 µg/mL (Ustilago maydis (USTIMA)): < 80%
- pest or weed control at 100 ppm [2, 9]: 25 to 74%
- pest or weed control at 100 ppm (Erysiphe graminis—ERYSGT): < 25%
- inhibition of growth at 25 µg/mL [3]: < 80%
- inhibition of growth at 25 µg/mL [1]: > 80%
- pest or weed control at 100 ppm [4, 9]: 25 to 74%
- inhibition of growth [5]: < 80%
- inhibition of growth at 25 µg/mL [6]: < 80%
- pest or weed control at 100 ppm [7]: < 25%
- pest or weed control at 100 ppm (Septoria tritici—SEPTTR; [10]): 25 to 74%
- inhibition of growth [8]: < 80%

Compound: COc1ccnc(C(=O)Nc2cccc(CC3CC(C)(C)OC(C)(C)C3)c2)c1O [Compound 460]
- pest or weed control at 100 ppm [2, 11]: 25 to 74%
- pest or weed control at 100 ppm (Erysiphe graminis—ERYSGT): 25 to 74%
- pest or weed control at 100 ppm [4, 11]: 25 to 74%
- melting point: 149 to 153 °C
- pest or weed control at 100 ppm [7]: < 25%
- pest or weed control at 100 ppm (Septoria tritici—SEPTTR; [12]): 25 to 74%

From patent US7034035B2, “Fungicidal mono-, bi-, and tri-cycloheteroalkyl amides and their compositions, methods of use and preparation” (priority 1999, dated 2006)
